Assays:
[1] = target: T1, PRMT5:MEP50 protein complex (Homo sapiens, UniProt O14744); assay: In vitro assay 1: PRMT5 SPA assay ("EAA"); format: biochemical; conditions: scintillation proximity assay, methylation of biotinylated H4(1-24) peptide, 3H-SAM, 60 min at 22° C.
T1 construct: FLAG (N); made in house; host or cells: Hi5 insect cells
Source text: In Vitro Assay 1: PRMT5 SPA Assay (“EAA”)
PRMT5 inhibitory activities of the compounds described in the present invention were quantified using a scintillation proximity assay (SPA) which measures methylation by the enzyme of a synthetic, biotinylated peptide corresponding to the N-terminal sequence of Histone H4 (a.a. 1-24). The peptide of sequence […]-K(Btn)-amide is commercially available (e.g. from Biosyntan) and will be herein referred to as H4(1-24). The PRMT5:MEP50 protein complex used in the assay was produced in house following standard protocols. Briefly, full length PRMT5 and MEP50 constructs respectively tagged with N-terminal FLAG and 6× His sequences were co-expressed in Hi5 insect cells, and the recombinant protein complex was purified by FLAG affinity and size exclusion chromatography.
In a typical assay 11 different concentrations of each compound (0.1 nM, 0.33 nM, 1.1 nM, 3.8 nM, 13 nM, 44 nM, 0.15 μM, 0.51 μM, 1.7 μM, 5.9 μM and 20 μM) were tested in duplicate within the same microtiter plate. To this end, 100-fold concentrated compound solutions (in DMSO) were previously prepared by serial dilution (1:3.4) of 2 mM stocks in a clear low volume 384-well source microtiter plate (Greiner Bio-One), from which 50 nl of compounds were transferred into a white low volume test microtiter plate from the same supplier. Subsequently, 2.5 μL PRMT5 in aqueous assay buffer [20 mM Bicine pH 8.0 (Alfa Aesar), 7.5 mM Tris(2-carboxyethyl) phosphine hydrochloride (TCEP, Sigma), 0.1% (w/v) bovine gamma globuline (BGG, Sigma), 0.002% (v/v) Tween-20 (Sigma)] were added to the compounds in the test plate to a final enzyme concentration of—typically—7.5 nM (this parameter was adjusted depending on the activity of the enzyme lot in order to be within the linear dynamic range of the assay). The samples were then incubated for 15 min at 22° C. to allow pre-equilibration of the putative enzyme-inhibitor complexes before the start of the methylation reaction, which was initiated by the addition of 2.5 μL 2-fold concentrated solution (in assay buffer) of “cold” S-Adenosyl-L-Methionine (SAM, Sigma, final concentration: 0.5 μM), tritiated 3H-SAM (Perkin Elmer, final concentration: 0.5 μM) and H4(1-24) peptide substrate (final concentration: 0.06 μM). The resulting mixture (5 μL final volume) was shortly centrifuged (2 min., 1500 rpm) and incubated at 22° C. during 60 min. Thereupon the reaction was stopped by adding 3 μL of Streptavidin PS SPA imaging beads (Perkin Elmer, final concentration of 0.375 μg/μL) and “cold” SAM (AK Scientific, 250 μM final concentration) for non-specific binding reduction. Plates containing the stopped reaction were sealed with transparent adhesive foil (Perkin Elmer), centrifuged (2 min., 1500 rpm), and further incubated either 1 h at 22° C. or overnight at 4° C. in order to allow the SPA signals to develop. Subsequently, the amount of product was evaluated by measuring the energy transfer from the β-particles emitted by the 3H-labeled substrate to the Europium scintillator co-polymerized in the polystyrene matrix of the PS imaging beads, using the standard settings for this purpose of a Viewlux (Perkin-Elmer) CCD plate imaging device (emission filter 613/55 (IFP).
The resulting scintillation counts were taken as indicator for the amount of methylated peptide per well. The data were normalised using two sets of control wells (typically 16 each) for high—(=enzyme reaction with DMSO instead of test compound=0%=minimum inhibition) and low—(=all assay components without enzyme=100%=maximum inhibition) PRMT5 activity. IC50 values were calculated by fitting the normalized inhibition data to a 4-parameter logistic equation using the “Screener” analysis software from Genedata.

[2] = tested on: PRMT5 (histone H4 Arg3 SDMA levels in MDA-MB-468 cells); assay: In vitro assay 2: quantification of SDMA (symmetric dimethylarginine) expression levels (H4 Arg3) in cancer cells, High-Content Analysis; format: cell-based; conditions: Homo sapiens, 72 h, SDMA histone H4 (Arg3) average signal intensity per cell
Source text: In Vitro Assay 2: Quantification of SDMA (Symmetric Dimethylarginine) Expression Levels (H4 Arg3) After Small Molecule Treatment of Cancer Cells
The SDMA-assay based on High-Content Analysis (HCA) enables the biological characterization of compounds inhibiting PRMT5. By this assay, substances are benchmarked on their cellular activity to modulate histone H4 Arg3 levels over broad inhibitor concentration ranges.
Cultivated cells of the human mammary gland tumor cell line MDA-MB-468 (ATCC HTB-132) were plated at a density of 2500 cells per well in a 384-well microtiter plate in 20 μL of Roswell Park Memorial Institute (RPMI) 1640 medium supplemented with 1% (v/v) glutamine, 1% (v/v) penicillin, 1% (v/v) streptomycin and 10% (v/v) fetal calf serum. After pre-incubation at 37° C. overnight, test compo unds solubilized in DMSO were added at various concentrations (0 μM, as well as in the range of 0.005 μM-30 μM; the final concentration of the solvent DMSO was 0.5% (v/v)). Cells were incubated at 37° C. for 72 h in the presence of test compounds. Thereafter, cells were fixed with 4% (v/v) paraformaldehyde in phosphate buffered saline (PBS) at room temperature for 1 h, permeabilized using 0.5% (v/v) Triton X™ 100 in PBS for 15 min and blocked with 1% (v/v) bovine serum albumin (BSA) in PBS for 30 min. In the following, cells were incubated with anti-dimethyl-histone H4 (Arg3) symmetric antibody (Millipore #07-947) at RT for 2 h. After a single washing step with blocking solution, cells were incubated with species-specific fluorescent conjugated secondary antibody Alexa Fluor™ 488 (Jackson Immuno Research #111-546-003) at RT for 2 h.
Image acquisition for cells was carried out using the confocal imaging system OPERA® (PerkinElmer). Images were captured using two channels: Hoechst 33342 stain (DNA) and Alexa Fluor™ 488 (SDMA staining); and were analyzed using the MetaXpress® software (Molecular Devices). Exposure times were chosen for individual experiments to prevent saturation and allow for quantification in the linear range. A minimum of 500 cells in 5 field views were analyzed per well using 10× water immersion objective with a two-fold binning.
The image analysis routine was developed in MetaXpress®. The standardized image-analysis module “Count Nuclei” and the images of the DNA-channel were used for nuclei segmentation. The segmented nuclei were filtered for size, shape and signal intensity to exclude possible apoptotic and non-viable cells along with metaphase nuclei. These phenotypes result in overestimated antibody signals, due to their strong chromatin compaction. For further processing, binary object masks were calculated from the segmented and positively selected nuclei. The binary masks served as templates to be superimposed over the images of the SDMA channel. The SDMA average signal intensity per cell was quantified for every image set. The assay raw data were further analyzed by four parameter logistic regression analysis using Genedata's Assay Analyzer® and Condoseo® software to determine the IC50 value for each tested compound.

T1 sequence (O14744 whole entry, species assumed): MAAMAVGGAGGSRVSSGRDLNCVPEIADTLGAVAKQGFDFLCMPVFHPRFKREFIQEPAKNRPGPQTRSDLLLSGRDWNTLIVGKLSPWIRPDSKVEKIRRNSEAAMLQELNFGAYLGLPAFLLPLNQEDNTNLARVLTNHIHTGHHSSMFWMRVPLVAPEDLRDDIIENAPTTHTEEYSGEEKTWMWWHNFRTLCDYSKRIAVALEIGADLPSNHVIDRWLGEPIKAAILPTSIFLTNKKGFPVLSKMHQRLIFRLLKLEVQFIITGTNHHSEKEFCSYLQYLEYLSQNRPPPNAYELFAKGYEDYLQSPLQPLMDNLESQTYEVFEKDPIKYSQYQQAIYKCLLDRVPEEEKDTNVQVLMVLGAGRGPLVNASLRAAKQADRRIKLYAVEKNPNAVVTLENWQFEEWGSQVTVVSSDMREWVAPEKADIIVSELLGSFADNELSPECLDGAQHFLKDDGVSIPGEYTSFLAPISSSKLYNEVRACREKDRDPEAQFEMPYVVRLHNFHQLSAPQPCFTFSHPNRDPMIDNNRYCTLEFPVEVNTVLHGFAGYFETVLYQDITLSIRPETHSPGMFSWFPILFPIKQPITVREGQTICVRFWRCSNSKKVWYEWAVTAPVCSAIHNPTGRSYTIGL
T1 sequence (Q9BQA1 whole entry partner, species assumed): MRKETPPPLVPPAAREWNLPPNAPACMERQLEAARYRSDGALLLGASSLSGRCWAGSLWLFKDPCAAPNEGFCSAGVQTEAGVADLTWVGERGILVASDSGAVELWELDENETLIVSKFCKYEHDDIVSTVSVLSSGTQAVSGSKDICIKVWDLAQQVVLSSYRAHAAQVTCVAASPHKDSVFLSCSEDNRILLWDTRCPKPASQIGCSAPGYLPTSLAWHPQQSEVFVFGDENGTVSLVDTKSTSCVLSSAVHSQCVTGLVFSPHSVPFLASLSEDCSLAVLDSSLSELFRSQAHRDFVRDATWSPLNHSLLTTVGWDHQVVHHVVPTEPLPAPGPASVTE

SMILES	IC50 [1]	IC50 [2]
O=C(Nc1cc(C2CC2)n[nH]1)c1csc(Nc2ccc(Cl)cc2)n1 [Example 5, 2-[(4-Chlorophenyl)amino]-N-(3-cyclopropyl-1H-pyrazol-5-yl)-1,3-thiazole-4-carboxamide]	113 nM	≥ 30 µM
CC(C)(C)c1cc(NC(=O)c2csc(Nc3ccccn3)n2)no1 [Example 2, N-(5-tert-Butyl-1,2-oxazol-3-yl)-2-(pyridin-2-ylamino)-1,3-thiazole-4-carboxamide]	78 nM	2.45 µM
CC(C)(C)c1cc(NC(=O)c2csc(Nc3ccc(Cl)cc3)n2)no1 [Example 4, N-(5-tert-Butyl-1,2-oxazol-3-yl)-2-[(4-chlorophenyl)amino]-1,3-thiazole-4-carboxamide]	104 nM	20.8 µM
CC(C)(C)c1cc(NC(=O)c2csc(Nc3ccc(F)cc3)n2)no1 [Example 7, N-(5-tert-Butyl-1,2-oxazol-3-yl)-2-[(4-fluorophenyl)amino]-1,3-thiazole-4-carboxamide]	149 nM	17.6 µM
CC(C)(C)c1cc(NC(=O)c2csc(Nc3ccc([N+](=O)[O-])cc3)n2)no1 [Example 13, N-(5-tert-Butyl-1,2-oxazol-3-yl)-2-[(4-nitrophenyl)amino]-1,3-thiazole-4-carboxamide]	344 nM	26.1 µM
CC(C)(C)c1cc(NC(=O)c2csc(Nc3ccc(Cl)c(Cl)c3)n2)no1 [Example 21, N-(5-tert-Butyl-1,2-oxazol-3-yl)-2-[(3,4-dichlorophenyl)amino]-1,3-thiazole-4-carboxamide]	1390 nM	26.7 µM
CC(C)(C)c1cc(NC(=O)c2csc(Nc3ccc(Cl)cc3)n2)n[nH]1 [Example 12, N-(5-tert-Butyl-1H-pyrazol-3-yl)-2-[(4-chlorophenyl)amino]-1,3-thiazole-4-carboxamide]	295 nM	22.1 µM
Cn1ccc(NC(=O)c2csc(Nc3ccccc3)n2)n1 [Example 23, N-(1-Methyl-1H-pyrazol-3-yl)-2-(phenylamino)-1,3-thiazole-4-carboxamide]	1610 nM	23.2 µM

From US20200123147A1, “THIAZOLE COMPOUNDS USEFUL AS PRMT5 INHIBITORS” (Bayer Aktiengesellschaft, priority 2017, published 2020)
